Reference: US8476265B2, “Compounds-801” (AstraZeneca AB, priority 2010, dated 2013)
Where a name gives a salt, the structure may show the parent alone.

How the values were obtained:
Adrenergic β2 = target: T1, Adrenergic β2 (Homo sapiens, UniProt P07550); assay: Adrenergic β2 mediated cAMP production in H292 cells (AlphaScreen), concentration response; assay type: cell-based; conditions: for EC50: 60 min, 300 μM rolipram, read-out: β2 pEC50 (converted); for β2 Intrinsic Activity: fraction relative to the maximum activity determined for formoterol
T1 construct: Adherent H292 cells are removed from tissue culture flasks by treatment with Accutase™ cell detachment solution; endogenous in cells; host or cells: H292 cells
T1 sequence (P07550 whole entry): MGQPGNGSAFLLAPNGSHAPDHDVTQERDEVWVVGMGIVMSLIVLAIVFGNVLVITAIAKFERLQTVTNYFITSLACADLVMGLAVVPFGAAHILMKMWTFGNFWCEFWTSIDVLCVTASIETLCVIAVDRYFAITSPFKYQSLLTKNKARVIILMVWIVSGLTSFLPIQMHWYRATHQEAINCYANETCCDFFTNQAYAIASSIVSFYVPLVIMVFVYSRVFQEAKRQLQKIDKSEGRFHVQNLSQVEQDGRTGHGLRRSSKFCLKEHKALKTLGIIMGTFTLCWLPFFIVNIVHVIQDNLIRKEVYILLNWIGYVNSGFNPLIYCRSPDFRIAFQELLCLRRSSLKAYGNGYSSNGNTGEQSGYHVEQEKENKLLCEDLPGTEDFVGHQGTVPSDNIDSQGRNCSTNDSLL
Summary of the method: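 H292 cells seeded overnight, pretreated 10 min with rolipram (300 μM final), then exposed to compounds 60 min at room temperature in HBSS/10 mM HEPES pH 7.4/5 mM glucose, 1% DMSO. Lysate cAMP quantified by AlphaScreen against a standard curve; four-parameter fit gives pEC50 and intrinsic activity relative to formoterol maximum.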

[1] = target: T2, human muscarinic acetylcholine M3 receptor (Homo sapiens, UniProt P20309); assay: Muscarinic 3 receptor binding assay ([3H]NMS competition, SPA), pIC50; conditions: [3H]NMS 0.1 nM, CHO-K1 cell membranes expressing human M3 receptor
T2 construct: expressed in transfected cells; host or cells: CHO-K1 (Chinese Hamster Ovary) cell membranes
T2 sequence (P20309 whole entry): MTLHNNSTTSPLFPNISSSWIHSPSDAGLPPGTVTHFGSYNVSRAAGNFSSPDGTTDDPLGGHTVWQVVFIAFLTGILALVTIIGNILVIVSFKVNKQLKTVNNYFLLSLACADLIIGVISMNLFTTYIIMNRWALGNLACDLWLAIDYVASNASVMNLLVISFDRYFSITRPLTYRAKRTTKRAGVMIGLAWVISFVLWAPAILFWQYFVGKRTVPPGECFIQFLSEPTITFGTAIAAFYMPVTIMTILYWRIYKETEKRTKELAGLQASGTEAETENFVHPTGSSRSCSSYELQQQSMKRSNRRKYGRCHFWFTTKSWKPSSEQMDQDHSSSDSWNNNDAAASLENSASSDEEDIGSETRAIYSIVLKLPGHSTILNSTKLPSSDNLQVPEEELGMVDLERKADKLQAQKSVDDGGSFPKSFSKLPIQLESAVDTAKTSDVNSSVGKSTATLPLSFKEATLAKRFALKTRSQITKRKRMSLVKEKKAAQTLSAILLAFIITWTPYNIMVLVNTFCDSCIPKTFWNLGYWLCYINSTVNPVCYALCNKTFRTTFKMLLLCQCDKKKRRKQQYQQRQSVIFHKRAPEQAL
Summary of the method: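 Competition of [3H]NMS (0.1 nM, quarter Kd) binding to CHO-K1 membranes expressing human M3, SPA format, in 20 mM HEPES pH 7.4, 5 mM MgCl2, 0.1% BSA, 1% DMSO. Incubated 16 h at room temperature; non-specific binding with 1 μM atropine; pIC50 from specific binding.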

Row | EC50 (Adrenergic β2) | β2 Intrinsic Activity (Adrenergic β2) | IC50 [1] | SMILES
1 | 200 nM | 1.0 | 0.2 nM | O=C1COc2c(CCNCCN(C(=O)CCOCCc3cccc(CN4CCC5(CC4)CN(C(=O)c4ccc6occc6c4)CCO5)c3)C3CCCCC3)ccc(O)c2N1 [Example 84, 3-(3-((4-(Benzofuran-5-carbonyl)-1-oxa-4,9-diazaspiro[5.5]undecan-9-yl)methyl)phenethoxy)-N-cyclohexyl-N-(2-(2-(5-hydroxy-3-oxo-3,4-dihydro-2H-benzo[b][1,4]oxazin-8-yl)ethylamino)ethyl)propanamide]
2 | 126 nM | 0.9 | 0.126 nM | Cc1cc(C(=O)N2CCOC3(CCN(Cc4cccc(CCOCCC(=O)N(CCNCCc5ccc(O)c6c5OCC(=O)N6)C5CCCCC5)c4)CC3)C2)cs1 [Example 85, N-Cyclohexyl-N-(2-(2-(5-hydroxy-3-oxo-3,4-dihydro-2H-benzo[b][1,4]oxazin-8-yl)ethylamino)ethyl)-3-(3-((4-(5-methylthiophene-3-carbonyl)-1-oxa-4,9-diazaspiro[5.5]undecan-9-yl)methyl)phenethoxy)propanamide]
3 | 158 nM | 1.0 | 1.58 nM | CC(C)(C)c1nc(C(=O)N2CCOC3(CCN(Cc4cccc(CCOCCC(=O)N(CCNCCc5ccc(O)c6c5OCC(=O)N6)C5CCCCC5)c4)CC3)C2)cs1 [Example 86, 3-(3-((4-(2-tert-Butylthiazole-4-carbonyl)-1-oxa-4,9-diazaspiro[5.5]undecan-9-yl)methyl)phenethoxy)-N-cyclohcxyl-N-(2-(2-(5-hydroxy-3-oxo-3,4-dihydro-2H-benzo[b][1,4]oxazin-8-yl)ethylamino)ethyl)propanamide]
4 | 158 nM | 1.0 | 0.2 nM | O=C1COc2c(CCNCCN(C(=O)CCOCCc3cccc(CN4CCC5(CC4)CN(C(=O)c4csc(C6CCC6)n4)CCO5)c3)C3CCCCC3)ccc(O)c2N1 [Example 87, 3-(3-((4-(2-Cyclobutylthiazole-4-carbonyl)-1-oxa-4,9-diazaspiro[5.5]undecan-9-yl)methyl)phenethoxy)-N-cyclohexyl-N-(2-(2-(5-hydroxy-3-oxo-3,4-dihydro-2H-benzo[b][1,4]oxazin-8-yl)ethylamino)ethyl)propanamide]
5 | 200 nM | 1.0 | 0.2 nM | O=C1COc2c(CCNCCN(C(=O)CCOCCc3cccc(CN4CCC5(CC4)CN(C(=O)c4csc(C6CCCC6)n4)CCO5)c3)C3CCCCC3)ccc(O)c2N1 [Example 88, N-Cyclohexyl-3-(3-((4-(2-cyclopentylthiazole-4-carbonyl)-1-oxa-4,9-diazaspiro[5.5]undecan-9-yl)methyl)phenethoxy)-N-(2-(2-(5-hydroxy-3-oxo-3,4-dihydro-2H-benzo[b][1,4]oxazin-8-yl)ethylamino)ethyl)propanamide]
6 | 200 nM | 1.0 | 5.01 nM | Cc1cc(C(=O)N2CCOC3(CCN(Cc4cccc(CCOCCC(=O)N(CCNCCc5ccc(O)c6c5OCC(=O)N6)C5CCCCC5)c4)CC3)C2)sc1C [Example 89, N-Cyclohexyl-3-(3-((4-(4,5-dimethylthiophene-2-carbonyl)-1-oxa-4,9-diazaspiro[5.5]undecan-9-yl)methyl)phenethoxy)-N-(2-(2-(5-hydroxy-3-oxo-3,4-dihydro-2H-benzo[b][1,4]oxazin-8-yl)ethylamino)ethyl)propanamide]
7 | 251 nM | 1.0 | 0.501 nM | CC(C)c1ccc(C(=O)N2CCOC3(CCN(Cc4cccc(CCOCCC(=O)N(CCNCCc5ccc(O)c6c5OCC(=O)N6)C5CCCCC5)c4)CC3)C2)s1 [Example 90, N-Cyclohexyl-N-(2-(2-(5-hydroxy-3-oxo-3,4-dihydro-2H-benzo[b][1,4]oxazin-8-yl)ethylamino)ethyl)-3-(3-((4-(5-isopropylthiophene-2-carbonyl)-1-oxa-4,9-diazaspiro[5.5]undecan-9-yl)methyl)phenethoxy)propanamide]
8 | 251 nM | 1.2 | 0.2 nM | CC(C)c1cc(C(=O)N2CCOC3(CCN(Cc4cccc(CCOCCC(=O)N(CCNCCc5ccc(O)c6c5OCC(=O)N6)C5CCCCC5)c4)CC3)C2)cs1 [Example 91, N-Cyclohexyl-N-(2-(2-(5-hydroxy-3-oxo-3,4-dihydro-2H-benzo[b][1,4]oxazin-8-yl)ethylamino)ethyl)-3-(3-((4-(5-isopropylthiophene-3-carbonyl)-1-oxa-4,9-diazaspiro[5.5]undecan-9-yl)methyl)phenethoxy)propanamide]
9 | 251 nM | 1.1 | 1.26 nM | O=C1COc2c(CCNCCN(C(=O)CCOCCc3cccc(CN4CCC5(CC4)CN(C(=O)c4ccc6sccc6c4)CCO5)c3)C3CCCCC3)ccc(O)c2N1 [Example 92, 3-(3-((4-(Benzo[b]thiophene-5-carbonyl)-1-oxa-4,9-diazaspiro[5.5]undecan-9-yl)methyl)phenethoxy)-N-cyclohexyl-N-(2-(2-(5-hydroxy-3-oxo-3,4-dihydro-2H-benzo[b][1,4]oxazin-8-yl)ethylamino)ethyl)propanamide]
10 | 251 nM | 1.1 | 0.2 nM | CCCc1cc(C(=O)N2CCOC3(CCN(Cc4cccc(CCOCCC(=O)N(CCNCCc5ccc(O)c6c5OCC(=O)N6)C5CCCCC5)c4)CC3)C2)cs1 [Example 93, N-Cyclohexyl-N-(2-(2-(5-hydroxy-3-oxo-3,4-dihydro-2H-benzo[b][1,4]oxazin-8-yl)ethylamino)ethyl)-3-(3-((4-(5-propylthiophene-3-carbonyl)-1-oxa-4,9-diazaspiro[5.5]undecan-9-yl)methyl)phenethoxy)propanamide]
11 | 126 nM | 1.0 | 0.251 nM | CC(C)Cc1nc(C(=O)N2CCOC3(CCN(Cc4cccc(CCOCCC(=O)N(CCNCCc5ccc(O)c6c5OCC(=O)N6)C5CCCCC5)c4)CC3)C2)cs1 [Example 94, N-Cyclohexyl-N-(2-(2-(5-hydroxy-3-oxo-3,4-dihydro-2H-benzo[b][1,4]oxazin-8-yl)ethylamino)ethyl)-3-(3-((4-(2-isobutylthiazole-4-carbonyl)-1-oxa-4,9-diazaspiro[5.5]undecan-9-yl)methyl)phenethoxy)propanamide]
12 | 100 nM | 1.0 | 0.126 nM | CCc1nc(C(=O)N2CCOC3(CCN(Cc4cccc(CCOCCC(=O)N(CCNCCc5ccc(O)c6c5OCC(=O)N6)C5CCCCC5)c4)CC3)C2)cs1 [Example 95, N-Cyclohexyl-3-(3-((4-(2-ethylthiazole-4-carbonyl)-1-oxa-4,9-diazaspiro[5.5]undecan-9-yl)methyl)phenethoxy)-N-(2-(2-(5-hydroxy-3-oxo-3,4-dihydro-2H-benzo[b][1,4]oxazin-8-yl)ethylamino)ethyl)propanamide]
13 | 158 nM | 1.0 | 0.251 nM | CCC(CC)c1nc(C(=O)N2CCOC3(CCN(Cc4cccc(CCOCCC(=O)N(CCNCCc5ccc(O)c6c5OCC(=O)N6)C5CCCCC5)c4)CC3)C2)cs1 [Example 96, N-Cyclohexyl-N-(2-(2-(5-hydroxy-3-oxo-3,4-dihydro-2H-benzo[b][1,4]oxazin-8-yl)ethylamino)ethyl)-3-(3-((4-(2-(pentan-3-yl)thiazole-4-carbonyl)-1-oxa-4,9-diazaspiro[5.5]undecan-9-yl)methyl)phenethoxy)propanamide]
14 | 158 nM | 1.0 | 1.26 nM | CC(C)c1cccc(C(=O)N2CCOC3(CCN(Cc4cccc(CCOCCC(=O)N(CCNCCc5ccc(O)c6c5OCC(=O)N6)C5CCCCC5)c4)CC3)C2)n1 [Example 97, N-Cyclohexyl-N-(2-(2-(5-hydroxy-3-oxo-3,4-dihydro-2H-benzo[b][1,4]oxazin-8-yl)ethylamino)ethyl)-3-(3-((4-(6-isopropylpicolinoyl)-1-oxa-4,9-diazaspiro[5.5]undecan-9-yl)methyl)phenethoxy)propanamide]
15 | 200 nM | 1.1 | 0.794 nM | CC(C)c1csc(C(=O)N2CCOC3(CCN(Cc4cccc(CCOCCC(=O)N(CCNCCc5ccc(O)c6c5OCC(=O)N6)C5CCCCC5)c4)CC3)C2)c1 [Example 98, N-Cyclohexyl-N-(2-(2-(5-hydroxy-3-oxo-3,4-dihydro-2H-benzo[b][1,4]oxazin-8-yl)ethylamino)ethyl)-3-(3-((4-(4-isopropylthiophene-2-carbonyl)-1-oxa-4,9-diazaspiro[5.5]undecan-9-yl)methyl)phenethoxy)propanamide]
16 | 15.8 nM | 1.2 | 2.51 nM | CC(C)c1nc(C(=O)N2CCOC3(CN(CCc4cccc(CCOCCC(=O)N(CCNCCc5ccc(O)c6c5OCC(=O)N6)C5CCCCC5)c4)C3)C2)cs1 [Example 176, N-Cyclohexyl-N-(2-(2-(5-hydroxy-3-oxo-3,4-dihydro-2H-benzo[b][1,4]oxazin-8-yl)ethylamino)ethyl)-3-(3-(2-(8-(2-isopropylthiazole-4-carbonyl)-5-oxa-2,8-diazaspiro[3.5]nonan-2-yl)ethyl)phenethoxy)propanamide, trifluoroacetate salt]
